Laboratory results as given in ChEMBL document CHEMBL1149417 (Bioorg Med Chem Lett, 2006).

Each molecule was assayed against T1, Estrogen receptor (Homo sapiens, UniProt P03372).
T1 sequence (P03372 whole entry): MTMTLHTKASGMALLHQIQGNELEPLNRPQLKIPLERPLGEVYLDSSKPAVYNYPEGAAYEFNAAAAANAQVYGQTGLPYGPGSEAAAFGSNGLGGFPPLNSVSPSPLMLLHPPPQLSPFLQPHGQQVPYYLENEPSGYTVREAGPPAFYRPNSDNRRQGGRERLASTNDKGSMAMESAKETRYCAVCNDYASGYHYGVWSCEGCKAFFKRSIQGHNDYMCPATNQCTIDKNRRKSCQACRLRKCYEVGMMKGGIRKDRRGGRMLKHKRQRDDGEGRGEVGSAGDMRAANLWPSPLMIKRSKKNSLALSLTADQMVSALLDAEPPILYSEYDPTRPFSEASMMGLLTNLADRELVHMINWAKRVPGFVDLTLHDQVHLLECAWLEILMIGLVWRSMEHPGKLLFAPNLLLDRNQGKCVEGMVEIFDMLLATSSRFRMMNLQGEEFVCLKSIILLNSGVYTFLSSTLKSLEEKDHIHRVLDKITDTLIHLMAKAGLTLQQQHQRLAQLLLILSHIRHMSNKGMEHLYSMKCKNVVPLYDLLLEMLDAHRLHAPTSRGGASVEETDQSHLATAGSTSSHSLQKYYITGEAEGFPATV
Assay type: functional, cell-based, HEK293
Description: Effect on transactivation of ALP gene expression in HEK293 cells transfected with hERalpha

SMILES	EC50 [µM]
C=C[C@]12CCC(=O)C=C1CCC1C2CC[C@@]2(C)C1CC[C@@H]2O (stereo not given in full)	> 1
CO/C=C\[C@]12CC[C@H](O)CC1=CCC1C2CC[C@@]2(C)C1CC[C@@H]2O (stereo not given in full)	3.24
C#CC1(O)CCC2C3CC=C4C[C@@H](O)CC[C@]4(C=C)C3CC[C@@]21C (single isomer, unassigned)	0.01
CC/C=C\[C@]12CC[C@H](O)CC1=CCC1C2CC[C@@]2(C)C1CC[C@@H]2O (stereo not given in full)	0.719
C[C@]12CCC3C(CC=C4C[C@@H](O)CC[C@@]43/C=C/F)C1CC[C@@H]2O (stereo not given in full)	0.324
C/C=C/[C@]12CC[C@H](O)CC1=CCC1C2CC[C@@]2(C)C1CC[C@@H]2O (stereo not given in full)	0.047
C[C@]12CCC3C(CC=C4C[C@@H](O)CC[C@@]43/C=C\Cl)C1CC[C@@H]2O (stereo not given in full)	> 1
C=C[C@]12CC[C@H](O)CC1=CCC1C2CC[C@@]2(C)C1CC[C@]2(C)O (stereo not given in full)	0.494
C[C@]12CCC3C(CC=C4C[C@@H](O)CC[C@@]43/C=C/Cl)C1CC[C@@H]2O (stereo not given in full)	0.603
C#CC12CC[C@H](O)CC1=CCC1C2CC[C@@]2(C)C1CC[C@@H]2O (single isomer, unassigned)	0.16
C#CC[C@]12CC[C@H](O)CC1=CCC1C2CC[C@@]2(C)C1CC[C@@H]2O (stereo not given in full)	0.984
C[C@]12CCC3C(CC=C4C[C@@H](O)CC[C@@]43C=O)C1CC[C@@H]2O (stereo not given in full)	0.844

The molecules below were run against T2, Estrogen receptor beta (Homo sapiens, UniProt Q92731).
T2 sequence (Q92731 whole entry): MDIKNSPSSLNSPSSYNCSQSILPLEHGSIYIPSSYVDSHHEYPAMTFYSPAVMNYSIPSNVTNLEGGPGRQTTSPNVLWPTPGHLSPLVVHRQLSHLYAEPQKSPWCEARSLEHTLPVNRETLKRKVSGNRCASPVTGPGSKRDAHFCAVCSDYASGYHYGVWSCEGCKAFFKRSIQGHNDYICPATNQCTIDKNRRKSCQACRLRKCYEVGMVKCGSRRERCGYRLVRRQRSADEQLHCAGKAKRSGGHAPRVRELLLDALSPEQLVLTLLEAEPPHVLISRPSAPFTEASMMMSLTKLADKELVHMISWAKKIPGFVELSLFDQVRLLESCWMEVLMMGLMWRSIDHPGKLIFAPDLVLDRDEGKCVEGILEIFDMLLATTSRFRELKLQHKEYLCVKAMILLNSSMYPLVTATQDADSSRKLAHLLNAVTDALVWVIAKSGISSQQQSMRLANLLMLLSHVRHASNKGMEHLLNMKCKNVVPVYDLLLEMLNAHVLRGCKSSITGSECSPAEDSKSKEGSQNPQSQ
Description: Binding affinity to human ERbeta

SMILES	IC50 [µM]
C=C[C@]12CCC(=O)C=C1CCC1C2CC[C@@]2(C)C1CC[C@@H]2O (stereo not given in full)	0.782
CO/C=C\[C@]12CC[C@H](O)CC1=CCC1C2CC[C@@]2(C)C1CC[C@@H]2O (stereo not given in full)	0.303
C#CC1(O)CCC2C3CC=C4C[C@@H](O)CC[C@]4(C=C)C3CC[C@@]21C (single isomer, unassigned)	0.014
CC/C=C\[C@]12CC[C@H](O)CC1=CCC1C2CC[C@@]2(C)C1CC[C@@H]2O (stereo not given in full)	0.361
C[C@]12CCC3C(CC=C4C[C@@H](O)CC[C@@]43/C=C/F)C1CC[C@@H]2O (stereo not given in full)	0.022
C/C=C/[C@]12CC[C@H](O)CC1=CCC1C2CC[C@@]2(C)C1CC[C@@H]2O (stereo not given in full)	0.096
C[C@]12CCC3C(CC=C4C[C@@H](O)CC[C@@]43/C=C\Cl)C1CC[C@@H]2O (stereo not given in full)	0.083
C=C[C@]12CC[C@H](O)CC1=CCC1C2CC[C@@]2(C)C1CC[C@]2(C)O (stereo not given in full)	0.025
C[C@]12CCC3C(CC=C4C[C@@H](O)CC[C@@]43/C=C/Cl)C1CC[C@@H]2O (stereo not given in full)	0.122
C#CC12CC[C@H](O)CC1=CCC1C2CC[C@@]2(C)C1CC[C@@H]2O (single isomer, unassigned)	0.017
C#CC[C@]12CC[C@H](O)CC1=CCC1C2CC[C@@]2(C)C1CC[C@@H]2O (stereo not given in full)	0.286
C[C@]12CCC3C(CC=C4C[C@@H](O)CC[C@@]43C=O)C1CC[C@@H]2O (stereo not given in full)	0.23

Each molecule was assayed against T3, Androgen receptor (Homo sapiens, UniProt P10275).
T3 sequence (P10275 whole entry): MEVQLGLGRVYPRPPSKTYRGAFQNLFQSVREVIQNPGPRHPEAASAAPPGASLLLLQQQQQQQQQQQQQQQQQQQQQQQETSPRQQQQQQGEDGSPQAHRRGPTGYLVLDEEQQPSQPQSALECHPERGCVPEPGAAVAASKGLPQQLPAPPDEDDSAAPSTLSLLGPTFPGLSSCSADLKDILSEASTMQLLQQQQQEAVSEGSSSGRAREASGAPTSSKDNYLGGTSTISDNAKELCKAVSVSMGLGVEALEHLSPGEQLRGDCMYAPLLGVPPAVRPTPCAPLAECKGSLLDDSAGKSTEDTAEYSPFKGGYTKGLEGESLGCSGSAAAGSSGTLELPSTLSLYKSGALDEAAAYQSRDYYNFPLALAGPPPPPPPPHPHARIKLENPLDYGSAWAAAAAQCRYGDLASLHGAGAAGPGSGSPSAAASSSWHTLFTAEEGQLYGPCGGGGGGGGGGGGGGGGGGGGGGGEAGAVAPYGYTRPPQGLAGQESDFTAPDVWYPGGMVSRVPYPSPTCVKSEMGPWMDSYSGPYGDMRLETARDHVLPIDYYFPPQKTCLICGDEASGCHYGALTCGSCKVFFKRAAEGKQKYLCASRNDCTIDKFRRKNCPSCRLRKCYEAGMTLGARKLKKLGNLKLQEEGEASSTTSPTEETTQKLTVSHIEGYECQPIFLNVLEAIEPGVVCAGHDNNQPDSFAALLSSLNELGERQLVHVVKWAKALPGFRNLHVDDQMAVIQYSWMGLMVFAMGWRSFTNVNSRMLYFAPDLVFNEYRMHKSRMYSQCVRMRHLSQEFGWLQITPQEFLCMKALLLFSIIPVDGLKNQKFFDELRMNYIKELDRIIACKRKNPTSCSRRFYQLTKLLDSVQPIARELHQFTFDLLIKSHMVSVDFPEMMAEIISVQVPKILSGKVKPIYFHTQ
Description: Inhibitory activity against AR

SMILES	IC50 [µM]
C=C[C@]12CCC(=O)C=C1CCC1C2CC[C@@]2(C)C1CC[C@@H]2O (stereo not given in full)	0.0079
CO/C=C\[C@]12CC[C@H](O)CC1=CCC1C2CC[C@@]2(C)C1CC[C@@H]2O (stereo not given in full)	1.4
C#CC1(O)CCC2C3CC=C4C[C@@H](O)CC[C@]4(C=C)C3CC[C@@]21C (single isomer, unassigned)	0.287
CC/C=C\[C@]12CC[C@H](O)CC1=CCC1C2CC[C@@]2(C)C1CC[C@@H]2O (stereo not given in full)	3.77
C[C@]12CCC3C(CC=C4C[C@@H](O)CC[C@@]43/C=C/F)C1CC[C@@H]2O (stereo not given in full)	0.085
C/C=C/[C@]12CC[C@H](O)CC1=CCC1C2CC[C@@]2(C)C1CC[C@@H]2O (stereo not given in full)	0.843
C[C@]12CCC3C(CC=C4C[C@@H](O)CC[C@@]43/C=C\Cl)C1CC[C@@H]2O (stereo not given in full)	0.172
C=C[C@]12CC[C@H](O)CC1=CCC1C2CC[C@@]2(C)C1CC[C@]2(C)O (stereo not given in full)	0.169
C[C@]12CCC3C(CC=C4C[C@@H](O)CC[C@@]43/C=C/Cl)C1CC[C@@H]2O (stereo not given in full)	1.44
C#CC12CC[C@H](O)CC1=CCC1C2CC[C@@]2(C)C1CC[C@@H]2O (single isomer, unassigned)	1.76
C#CC[C@]12CC[C@H](O)CC1=CCC1C2CC[C@@]2(C)C1CC[C@@H]2O (stereo not given in full)	1.72
C[C@]12CCC3C(CC=C4C[C@@H](O)CC[C@@]43C=O)C1CC[C@@H]2O (stereo not given in full)	> 5

Biological target: T2, Estrogen receptor beta
Assay type: functional, cell-based, HEK293
Remark: another data set of the same source
Description: Effect on transactivation of ALP gene expression in HEK293 cells transfected with hERbeta

SMILES	EC50 [µM]
C=C[C@]12CCC(=O)C=C1CCC1C2CC[C@@]2(C)C1CC[C@@H]2O (stereo not given in full)	0.379
CO/C=C\[C@]12CC[C@H](O)CC1=CCC1C2CC[C@@]2(C)C1CC[C@@H]2O (stereo not given in full)	0.188
C#CC1(O)CCC2C3CC=C4C[C@@H](O)CC[C@]4(C=C)C3CC[C@@]21C (single isomer, unassigned)	0.024
CC/C=C\[C@]12CC[C@H](O)CC1=CCC1C2CC[C@@]2(C)C1CC[C@@H]2O (stereo not given in full)	0.252
C[C@]12CCC3C(CC=C4C[C@@H](O)CC[C@@]43/C=C/F)C1CC[C@@H]2O (stereo not given in full)	0.0087
C/C=C/[C@]12CC[C@H](O)CC1=CCC1C2CC[C@@]2(C)C1CC[C@@H]2O (stereo not given in full)	0.039
C[C@]12CCC3C(CC=C4C[C@@H](O)CC[C@@]43/C=C\Cl)C1CC[C@@H]2O (stereo not given in full)	0.091
C=C[C@]12CC[C@H](O)CC1=CCC1C2CC[C@@]2(C)C1CC[C@]2(C)O (stereo not given in full)	0.031
C[C@]12CCC3C(CC=C4C[C@@H](O)CC[C@@]43/C=C/Cl)C1CC[C@@H]2O (stereo not given in full)	0.068
C#CC12CC[C@H](O)CC1=CCC1C2CC[C@@]2(C)C1CC[C@@H]2O (single isomer, unassigned)	0.008
C#CC[C@]12CC[C@H](O)CC1=CCC1C2CC[C@@]2(C)C1CC[C@@H]2O (stereo not given in full)	0.153
C[C@]12CCC3C(CC=C4C[C@@H](O)CC[C@@]43C=O)C1CC[C@@H]2O (stereo not given in full)	0.078

Biological target: T1, Estrogen receptor
Remark: another data set of the same source
Description: Binding affinity to human ERalpha

SMILES	IC50 [µM]
C=C[C@]12CCC(=O)C=C1CCC1C2CC[C@@]2(C)C1CC[C@@H]2O (stereo not given in full)	> 10
CO/C=C\[C@]12CC[C@H](O)CC1=CCC1C2CC[C@@]2(C)C1CC[C@@H]2O (stereo not given in full)	3.35
C#CC1(O)CCC2C3CC=C4C[C@@H](O)CC[C@]4(C=C)C3CC[C@@]21C (single isomer, unassigned)	0.147
CC/C=C\[C@]12CC[C@H](O)CC1=CCC1C2CC[C@@]2(C)C1CC[C@@H]2O (stereo not given in full)	3.04
C[C@]12CCC3C(CC=C4C[C@@H](O)CC[C@@]43/C=C/F)C1CC[C@@H]2O (stereo not given in full)	4.16
C/C=C/[C@]12CC[C@H](O)CC1=CCC1C2CC[C@@]2(C)C1CC[C@@H]2O (stereo not given in full)	1.16
C[C@]12CCC3C(CC=C4C[C@@H](O)CC[C@@]43/C=C\Cl)C1CC[C@@H]2O (stereo not given in full)	6.69
C=C[C@]12CC[C@H](O)CC1=CCC1C2CC[C@@]2(C)C1CC[C@]2(C)O (stereo not given in full)	1.05
C[C@]12CCC3C(CC=C4C[C@@H](O)CC[C@@]43/C=C/Cl)C1CC[C@@H]2O (stereo not given in full)	5.6
C#CC12CC[C@H](O)CC1=CCC1C2CC[C@@]2(C)C1CC[C@@H]2O (single isomer, unassigned)	0.425
C#CC[C@]12CC[C@H](O)CC1=CCC1C2CC[C@@]2(C)C1CC[C@@H]2O (stereo not given in full)	4.64
C[C@]12CCC3C(CC=C4C[C@@H](O)CC[C@@]43C=O)C1CC[C@@H]2O (stereo not given in full)	> 10
